# Key:
# [1] = target: T1, recombinant CYP2D6 (Homo sapiens, UniProt P10635); assay: Incubation with recombinant CYP2D6 enzymes; assay type: in vitro ADME; details: rec. CYP2D6 with CYP2D6 inhibitor quinidine
# T1 construct: purchased Corning Life Sciences B.V
# Method: Corning UltraPool human liver microsomes (HLM) 150 (20 mg/mL), human intestinal microsomes (HIM) pool (10 mg/mL) as well as recombinant human CYP enzymes (with P450 oxidoreductase, OR) including CYP1A2+OR (0.5 nmol), CYP2B6+OR (0.5 nmol), CYP2C8+OR (1.0 nmol), CYP2C9*1+OR (1 nmol), CYP2C19+OR (0.5 nmol), CYP2D6*1+OR (0.5 nmol), CYP2E1+OR + cytochrome b5 (1 nmol), CYP3A4+OR + cytochrome b5 (0.5 nmol), MAO-A (5 mg/mL), MAO-B (5 mg/mL), and UGT1A10 (5 mg/mL) were purchased from Corning Life Sciences B.V (Amsterdam, Netherlands). All microsomes and recombinant enzyme solutions were aliquoted and stored at −80 °C until further use.
# The total volume of the reaction mixture was 500 μL. […] Samples were either directly analyzed by liquid chromatography tandem mass spectrometry (LC-MS/MS) or briefly stored at −20°C until analysis.
# [2] = Pharmacokinetics and metabolites in mouse plasma after oral psilocybin; assay type: in vivo, C57BL/6J mice; details: male, C57BL/6J, po; mouse plasma, 3 mg/kg psilocybin p.o., n = 5; read-out: tmax (mean ± SD)
# Method: C57BL/6J adult male mice (Janvier, Le Genest-Saint-Isle, France) were maintained in littermate pairs in standard cages (containing sawdust, a sleeping chamber, tissue paper, and a wood stick) with water and pellet food available ad libitium. The colony room was on a reversed light-dark cycle (dark phase 07:00 to 19:00) with temperature at 22°C and humidity at 50–60%. A total of 10 mice were dosed orally with either 3 mg/kg bodyweight psilocybin (n = 5) or saline solution (n = 5). Dosing and blood sampling were conducted between 09:00 and 13:00. The mouse was placed in a plastic restrainer with the tail protruding through a hole in the end of the tube. The tail was immersed in warm water for 1 min for vasodilation and then a small incision was made on the lateral tail surface near the distal tip. 50 μL of blood was massaged gently into an EDTA-coated capillary blood tube (Mircovette, Sarstedt, Nümbrecht, Germany). The first (baseline) blood sample was collected directly before compound administration via oral gavage and the mouse was then returned to the home cage. Further blood samples were collected at 15, 30, 60, and 120 min post-treatment. Each sample was drawn from the same incision site, with mice maintained in the home cage in the intervening periods. The blood samples were stored on ice and centrifuged for 10 min at 780 × g and 4°C. Subsequently, the plasma was transferred into cryotubes (Protein LoBind, Eppendorf) and stored at −80 °C until analysis. All procedures were conducted under a permit for animal experimentation (ZH038/2022) issued by the Veterinary Office Zurich in accordance with the Animal Protection Act (1978) of Switzerland. The use of psilocybin was authorized by the Federal Office of Public Health (FOPH).
# Pharmacokinetic parameters were calculated using Phoenix WinNonlin software (version 8.1.0, Certara, Princeton, USA). The elimination half-life (t1/2, min) was assessed as t1/2 = ln(2)/λ, while the elimination constant was calculated by linear regression in the terminal elimination phase. The maximal plasma concentration (Cmax, ng/mL) and the time to reach this concentration (tmax, h) were direct read-outs of the graphical plots.
# [3] = target: mouse 5-HT2A receptor; set-up: method as in Sherwood et al., 2020; details: Gq-dependent calcium flux, nearly full agonist; ref Sherwood et al., 2020; cited from earlier work
# [4] = test system: mice; set-up: method as in Sherwood et al., 2020; details: ref Sherwood et al., 2020; cited from earlier work
# [5] = Metabolites in human plasma after oral psilocybin (reanalysed study samples); details: 30 mg psilocybin p.o., n = 5
# T1 sequence (P10635 whole entry): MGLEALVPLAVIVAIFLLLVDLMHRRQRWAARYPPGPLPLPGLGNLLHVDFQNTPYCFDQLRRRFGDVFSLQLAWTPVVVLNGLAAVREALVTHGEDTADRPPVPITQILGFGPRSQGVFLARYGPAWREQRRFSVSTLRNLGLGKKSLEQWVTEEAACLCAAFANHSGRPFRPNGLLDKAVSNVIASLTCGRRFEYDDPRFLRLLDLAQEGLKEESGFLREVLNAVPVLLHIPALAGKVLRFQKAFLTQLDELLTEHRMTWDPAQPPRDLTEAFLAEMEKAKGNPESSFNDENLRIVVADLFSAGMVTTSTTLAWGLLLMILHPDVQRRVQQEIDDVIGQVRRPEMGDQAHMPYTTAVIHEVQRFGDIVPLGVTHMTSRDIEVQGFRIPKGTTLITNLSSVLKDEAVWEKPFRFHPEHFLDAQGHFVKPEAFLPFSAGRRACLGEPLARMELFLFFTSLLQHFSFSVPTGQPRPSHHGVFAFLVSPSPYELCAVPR
smiles,measurement,setting,value
"CNCCc1c[nH]c2cccc(O)c12 [norpsilocin, N-methyl-4-hydroxytryptamine]",metabolite formation on co-incubation with quinidine,[1],reduced and delayed formation
same,Tmax,[2],~15 min
same,EC50,[3],< 10 nM
same,psychoactive properties in head-twitch response,[4],did not show any psychoactive properties
same,detection in human plasma,[5],neither norpsilocin nor 4-HTP was detected
